Experimental data reported in patent publication US11919869B2, “CD73 compounds” (Gilead Sciences, Inc., priority 2021, dated 2024).
Like-named read-outs stand apart in the source and are kept apart here.

Assays:
[1] = In vivo rat pharmacokinetics; conditions: Wister Han rats, 100 mg-eq/kg
Description: In Vivo Rat Pharmacokinetics Experiments
In vivo Wister Han rat pharmacokinetic experiments of compound Comparator C and Example 4 were assessed as follows.
Compound Comparator C was dosed as a 100 mg/kg suspension to Wister Han rats (N=3) using the following formulation:30% captisol, 5% soluplus, 65% pH 2 water. Compound 1170997 was dosed separately as a 100 mg-eq/kg (123 mg/kg) solution to Wister Han rats (N=3) using the following formulation: 0.5% Methocel E4M Premium, 0.1% Tween-80, 99.4% Water. Samples were assessed for the presence of Comparator C.
Comparator C and Example 4. […] As is shown in Table 4, the AUC 0-24 h measured for Comparator C in plasma was higher after dosing with Example 4 than the value measured after dosing with an equivalent dose of Comparator C.

[2] = Assay buffer stability (Tris buffer without alkaline phosphatase); type: physicochemical; conditions: 2 μM substrate, Tris buffer pH 7.8 without alkaline phosphatase
Description: (§1) Alkaline phosphatase stability assays were carried out using purified Bovine intestinal alkaline phosphatase. Duplicate sets were performed with a TECAN liquid handler. Assay substrate concentrations were 2 μM. Purified Bovine intestinal alkaline phosphatase was acquired through MilliPore Sigma as a lyophilized powder. Reaction mixtures were prepared by the addition of 2 μL compound (400 μM stock solution in DMSO) into wells of a 96-well plate containing […] Tris buffer (100 mM, pH 7.8, 1 mM MgCl2 and 1 mM ZnCl2) with and without 100 ng/mL purified Bovine intestinal alkaline phosphatase. Samples were assessed at time points of 3, 30, 60, 120, 180 and 240 minutes. At each time point, 25 μL of the reaction mixtures were added into a 96-well plate containing 225 μL of quench solution (99% Acetonitrile with 1% Formic Acid and 100 nM Labetalol as internal standard). The plates containing the quench samples were then vortexed at 1100 RPM for 10 minutes and centrifuged at 4500 RPM for 20 minutes. 150 μL of the resulting supernatant was transferred into a 96-well plate containing 150 μL of water and vortexed at 1100 RPM for 3 minutes to mix.
(§2) Samples were analyzed with a Leap HTC Autosampler and a Dionex UltiMate 3000 HPLC system interfaced to a Thermo Q-Exactive mass spectrometer operating in positive ion electrospray mode. A Thermo Scientific Hypersil GOLD (1.9 μM particle size, 50×2.1 mm) HPLC column was used and mobile phase was pumped at 0.5 mL/min. Elution of analytes was achieved by a series of linear gradients of acetonitrile in water containing 0.1% (v/v) formic acid. Quantification was by analyte/internal standard peak area ratio (PAR).

[3] = target: T1, alkaline phosphatase (intestinal) (Bos taurus, UniProt P19111); test: Alkaline phosphatase stability assay; type: in vitro ADME; conditions: 2 μM substrate, 100 ng/mL purified Bovine intestinal alkaline phosphatase, Tris buffer pH 7.8; read-out: ALP half life
T1 construct: purchased MilliPore Sigma
Description: Alkaline Phosphatase Stability Assay
as §1, §2

[4] = Kinetic solubility at pH 1 and 7; type: physicochemical; conditions: 23 °C, kinetic from dmso stock, 1.0% DMSO
Description: Kinetic Solubility at pH 1 and 7
100-fold dilutions of each compound as DMSO stock solution were prepared by combining 3 μL of DMSO stock with 297 μL of the appropriate media in a Millipore solubility filter plate with 0.45 μM polycarbonate filter membrane using Hamilton Starlet liquid handling. The final DMSO Concentration is 1.0% and maximum theoretical compound concentration is […] (assuming stock concentration of 10 mM). The filter plate was sealed. Following 24-hour incubation at ambient temperature (22.2-23.6° C.), the samples were vacuum filtered, and the filtrates were collected in a 96 well polypropylene plate for analysis. The collection plate was sealed for analysis. Filtrates were injected into the nitrogen detector for quantification. The equimolar nitrogen response of the detector is calibrated using standards which span the dynamic range of the instrument from 0.08 to 4500 μg/ml nitrogen. The filtrates were quantified with respect to this calibration curve. The calculated solubility values are corrected for background nitrogen present in the DMSO, and the media used to prepare the samples

[5] = Thermodynamic solubility in FaSSIF and FeSSIF; type: physicochemical; conditions: 20 hours, ambient temperature
Description: Thermodynamic Solubility in FASSIF and FESSIF.
The aqueous solubility of compounds over a time of 20 hours was assessed. Solubility was determined at ambient temperature in buffered fasted-state simulated intestinal fluid (FaSSIF, pH 6.5) and buffered fed-state simulated intestinal fluid (FeSSIF, pH 5.0) prepared in-house using BioRelevant Simulated Intestinal Fluid (SIF) powder. Solids were added to FaSSIF or FeSSIF in 1.5-mL Eppendorf tubes, vortexed for 1 minute, then agitated for 20 hours in an Eppendorf ThermoMixer C. To determine concentration in solution, the suspensions were centrifuged for 10 min at 14,800 rpm and supernatants were diluted to a volume of 1 mL with 1:1 v/v acetonitrile:water. All diluted supernatants were analyzed by UPLC using a Waters Acquity UPLC with a PDA UV detector.

T1 sequence (P19111 20-506 limits assumed): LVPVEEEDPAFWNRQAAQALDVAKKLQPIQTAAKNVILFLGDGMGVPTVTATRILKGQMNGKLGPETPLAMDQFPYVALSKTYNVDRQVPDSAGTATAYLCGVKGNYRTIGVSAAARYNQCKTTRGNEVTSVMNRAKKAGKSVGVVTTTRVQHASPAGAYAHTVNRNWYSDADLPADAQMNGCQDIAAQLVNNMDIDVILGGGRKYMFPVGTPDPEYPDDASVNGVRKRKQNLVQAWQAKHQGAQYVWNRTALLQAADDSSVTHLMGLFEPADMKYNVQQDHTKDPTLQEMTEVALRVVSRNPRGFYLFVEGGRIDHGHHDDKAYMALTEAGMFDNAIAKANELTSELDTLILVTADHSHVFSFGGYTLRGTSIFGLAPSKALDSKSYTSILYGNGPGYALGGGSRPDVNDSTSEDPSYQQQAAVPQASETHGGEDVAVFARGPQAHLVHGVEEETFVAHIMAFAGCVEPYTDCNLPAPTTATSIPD

## O=c1[nH]c(=O)n(COP(=O)(O)O)cc1-c1cc([C@H]2C[C@@H]2c2ccc3cnn(CC(F)(F)F)c3c2)c2ncc(F)n2n1 [Example 4, (5-(3-fluoro-8-((1S,2S)-2-(1-(2,2,2-trifluoroethyl)-1H-indazol-6-yl)cyclopropyl)imidazo[1,2-b]pyridazin-6-yl)-2,4-dioxo-3,4-dihydropyrimidin-1(2H)-yl)methyl dihydrogen phosphate]
[1]
  AUC 0-24 h measured for Comparator C in plasma, compared with dosing an equivalent dose of Comparator C: higher
[2]
  half-life at 2 µM: > 1580 min
[3]
  half-life at 2 µM: 4 min
[4]; aqueous buffer, pH 7, 24-hour incubation at ambient temperature, read-out: Kinetic Solubility pH 7
  solubility kinetic at 24 h: > 100 µM
[4]; simulated gastric fluid, pH 1, 24-hour incubation at ambient temperature, read-out: Kinetic Solubility pH 1
  solubility kinetic at 24 h: 96 µM
[5]; fasted-state simulated intestinal fluid pH 6.5
  FaSSIF (pH 6.5): 1100 ug/mL
[5]; fed-state simulated intestinal fluid pH 5.0
  FeSSIF (pH 5.0): >5400 ug/mL
